In patent EP4311544A1, “COMPOUNDS USEFUL AGAINST JELLYFISH STINGS” (Isdin, S. A., priority 2022, dated 2024):

Columns and labels:
[1] = test system: P. noctiluca; assay: Tentacle Skin Blood Agarose Assay (TSBAA): venom load as hemolytic area after natural stimulation of nematocyst discharge; format: cell-based; conditions: for discharge of nematocysts: summary statement on the results of Examples 1 and 2
Method: (§1) Jellyfish cultures: Jellyfish were cultivated by laboratory conditions in Loro Parque aquarium (Tenerife, Spain). The P. noctiluca adult individuals were breeding in kreisels tanks with a continuous water renewal, 33-35‰ salinity, 22°C temperature and light cycle of 12h light/12h dark. Individuals were daily fed with Artemia sp. nauplii, small pieces of the jellyfish Aurelia sp., eggs of Merluccius and Parapenaeus longirostris.
Briefly, an agarose gel preparation incorporating sheep red blood cells (SRBCs) (Thermo Fisher Scientific) was used covered by a thin tissue of pig intestine to simulate the effect of the human skin barrier.
A solution of 4% low melting point agarose (INVITROGEN ™ LMP Agarose) in phosphate buffered saline (PBS) (SIGMA) was prepared and cooled to room temperature for a few minutes. The SRBCs were centrifuged and resuspended in PBS until a final concentration of 2% was obtained. Equal volumes of both preparations were mixed and poured onto a glass surface with a mold (18x7.5 cm) and allowed to cool to room temperature. Once the agarose with SRBCs was set, rectangles were cut and placed on slides and kept at 4 °C in a humidification chamber (maximum 72 hours until use).
Pig small intestine tissue was washed in a 50 mM saline solution and then cut in rectangular sections. The sections were sterilized in a disinfecting solution consisting of 87% 110 mM saline, 10% ethanol (PANREAC, ethanol 96%) and 3% hydrogen peroxide for 3 hours, after which they were left in physiological serum overnight. The next day, the sections were stretched on a glass surface and allowed to dry for a few minutes in the open air. The pretreated sections of the pig small intestine were placed on the SRBC agarose rectangles.
Cutting tentacles of the same size is a complicated process due to the contraction and expansion of the tentacles after their manipulation. In order to control the sting area, we design plastic molds obtained through a 3D printer.
Tentacle pieces of approximately 3 cm long were incubated on reductor or inhibitory solutions (Method 3) for 5 minutes. Consecutively, the agarose rectangles were stung by a sting diameter of 57,35 mm^2 for 1 minute. A weight of 0,66 g was applied to ensure the contact between the tentacle and the skin. After the sting process, the plastic molds and the intestine sections were removed and the SRBC's agarose rectangles were stored in the humidification chamber at room temperature. After a period of 22 hours, images of the hemolytic areas were obtained with a camera. Hemolytic areas were calculated using the Fiji version of ImageJ software (J. Schindelin et al., Fiji: an open-source platform for biological-image analysis. Nature methods, 2012, vol. 9, pp. 676-682). Table 2. Inhibitory efficacy on the venom load to P. noctiluca.

[2] = test system: P. noctiluca; assay: Tentacle Solution Assay (TSA): inhibition of chemically stimulated nematocyst discharge; format: cell-based; design: key to Inhibitory effect (TSA) using 5% acetic acid as chemical stimulator Discharge: 0: no discharge was observed; +: low discharge of nematocysts; ++: medium discharge of nematocysts; +++: high discharge of nematocysts; key to Inhibitory effect (TSA) using 5% acetic acid as chemical stimulator Effect: Neutral effect solution: nematocysts were not activated after the incubation in the first solution but were activated by the subsequent chemical stimulation with 5% acetic acid solution; Reductor effect solution: nematocysts were not activated after the incubation in the first solution, but some isolated nematocysts discharge was observed activated by the subsequent chemical stimulation with 5% acetic acid solution; Inhibitory effect solution: nematocysts were not activated after the incubation in the first solution or by the subsequent chemical stimulation with 5% acetic acid solution; conditions: tentacle pieces incubated 5 minutes in 3 ml solution, then 15 µl of 5% acetic acid
Method: as §1
Tentacles pieces of approximately 3 cm long were transferred to slides ([…]). The samples were observed under the light microscope in order to ensure their integrity. Subsequently, tentacles were incubated on microwells with 3 ml of each solution for 5 minutes. In order to know the inhibitory effect, the neutral solutions were chemically stimulated by means of 15 µl of 5% acetic acid solution in distilled water (an activator solution per se).
The nematocysts response was classified qualitatively in four categories in accordance with Pyo et al. (2016): • 1. 0: no discharge was observed; • 2. +: low discharge of nematocysts; • 3. ++: medium discharge of nematocysts; • 4. +++: high discharge of nematocysts.
The effect was classified in one of three categories: • 1. Neutral effect solution: nematocysts were not activated after the incubation in the first solution but were activated by the subsequent chemical stimulation with 5% acetic acid solution; • 2. Reductor effect solution: nematocysts were not activated after the incubation in the first solution, but some isolated nematocysts discharge was observed activated by the subsequent chemical stimulation with 5% acetic acid solution; • 3. Inhibitory effect solution: nematocysts were not activated after the incubation in the first solution or by the subsequent chemical stimulation with 5% acetic acid solution. Table 1. Inhibitory efficacy on the nematocyst discharge in P. noctiluca.

For `CC(C)(C)C1CCC(O)CC1` (stereo not drawn) [4-tert-butyl cyclohexanol], the discharge of nematocysts [1] was “significantly reduces”.

With `CC(=O)O` [5% Acetic acid solution, acetic acid] the “Inhibitory effect (TSA) using 5% acetic acid as chemical stimulator Discharge” value [2] was “+++” and the “Inhibitory effect (TSA) using 5% acetic acid as chemical stimulator Effect” value [2] was “Activator”.

In the case of `CC(O)CCO` (stereo not drawn) [100% Butylene glycol, butylene glycol], the “Inhibitory effect (TSA) using 5% acetic acid as chemical stimulator Discharge” value [2] is reported as “+”, the “Inhibitory effect (TSA) using 5% acetic acid as chemical stimulator Effect” value [2] is reported as “Reductor” and the “Venom load - Hemolytic area (%)” value ([1]; tentacles incubated 5 minutes in solution, sting 1 minute through pig intestine on sheep red blood cell agarose, read after 22 hours) is reported as 26.54 ± 19.66%. The “% Inhibitory” value ([1]; {}) was 56.33%.

With `CCO` [100% Ethanol, ethanol] the “Inhibitory effect (TSA) using 5% acetic acid as chemical stimulator Discharge” value [2] was “++” and the “Inhibitory effect (TSA) using 5% acetic acid as chemical stimulator Effect” value [2] was “Neutral/Reductor”.

`CC(O)CO` (stereo not drawn) [100% Propylene glycol, propylene glycol] was tested, and the “Inhibitory effect (TSA) using 5% acetic acid as chemical stimulator Discharge” value [2] was “+” and the “Inhibitory effect (TSA) using 5% acetic acid as chemical stimulator Effect” value [2] was “Reductor”.

For `O=C(CO)c1ccccc1` [HAP, hydroxy acetophenone], the discharge of nematocysts [1] was “significantly reduces”.
